Where a SMILES comes first, the peptide text is derived from it. Bridges are numbered along the chain shown (N, C = ends). [ ]: non-standard residue; d: D form. hPhe(3-Cl-4-CF3) = N[C@@H](CCc1ccc(C(F)(F)F)c(Cl)c1)C(=O)O; NPrPhe(4-CF3) = CCCN[C@@H](Cc1ccc(C(F)(F)F)cc1)C(=O)O; NMeGly(cPent) = CN[C@H](C(=O)O)C1CCCC1; Pro(4,4-F2) = O=C(O)[C@@H]1CC(F)(F)CN1; NMeD = CN[C@@H](CC(=O)O)C(=O)O; NMeL = CN[C@@H](CC(C)C)C(=O)O; Aze = O=C(O)[C@@H]1CCN1; Ac4c = NC1(C(=O)O)CCC1; Sar = CNCC(=O)O
Key:
[1] = target: GDP-bound NRAS wild-type protein (Homo sapiens, UniProt P01111); assay: Binding to NRAS by surface plasmon resonance (SPR), Single Cycle Kinetics
[2] = target: GDP-bound HRAS wild-type protein (Homo sapiens, UniProt P01112); assay: Binding to HRAS by surface plasmon resonance (SPR), Single Cycle Kinetics
[3] = KD ratio, GDP-bound NRAS wild-type vs GDP-bound KRAS wild-type, SPR
[4] = KD ratio, GDP-bound HRAS wild-type vs GDP-bound KRAS wild-type, SPR

GDP-bound HRAS wild-type protein, sequence (P01112 whole entry): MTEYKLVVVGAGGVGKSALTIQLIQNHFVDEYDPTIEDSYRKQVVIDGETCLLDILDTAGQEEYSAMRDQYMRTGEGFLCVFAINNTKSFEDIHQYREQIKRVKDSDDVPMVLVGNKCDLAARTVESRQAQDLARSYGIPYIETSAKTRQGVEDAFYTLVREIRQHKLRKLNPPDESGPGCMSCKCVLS
GDP-bound NRAS wild-type protein, sequence (P01111 whole entry): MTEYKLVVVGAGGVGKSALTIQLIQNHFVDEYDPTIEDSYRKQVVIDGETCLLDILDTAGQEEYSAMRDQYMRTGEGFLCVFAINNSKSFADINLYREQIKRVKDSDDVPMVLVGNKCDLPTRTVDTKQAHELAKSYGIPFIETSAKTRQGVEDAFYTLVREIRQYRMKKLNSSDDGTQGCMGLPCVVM

Structure (SMILES)	NRAS/KRAS (ratio of KD value with respect to NRAS to KD value with respect to KRAS) [1, 3]	HRAS/KRAS (ratio of KD value with respect to HRAS to KD value with respect to KRAS) [2, 4]	NRAS/KRAS (ratio of KD value with respect to GDP-bound NRAS wild-type protein to KD value with respect to KRAS) ([1]; class symbols)	HRAS/KRAS (ratio of KD value with respect to GDP-bound HRAS wild-type protein to KD value with respect to KRAS) ([2]; class symbols)	further results
CCO[C@@H]1C[C@H]2C(=O)NC3(CCC3)C(=O)N(C)[C@@H](C3CCCC3)C(=O)N(C)[C@H](C(=O)N(C)C)CC(=O)N(C)[C@@H](CC)C(=O)N[C@@H]([C@@H](C)CC)C(=O)N[C@@H](C)C(=O)N(C)[C@H]3C/C=C\CCN(C3=O)[C@@H](Cc3ccc(C(F)(F)F)cc3)C(=O)N(C)CC(=O)N[C@@H](CCc3cc(F)c(C(F)(F)F)c(F)c3)C(=O)N2C1 [PP1065]	A (a compound having 10 or more and less than 20 is denoted as A)	B (a compound having 3 or more and less than 10 is denoted as B)			
CCCOC[C@H]1C(=O)N[C@@H]([C@@H](C)CC)C(=O)N(C)CC(=O)N(C)[C@H]2C/C=C\CCN(C2=O)[C@@H](Cc2ccc(C)cc2)C(=O)N(C)CC(=O)N[C@@H](CCc2ccc(C(F)(F)F)c(OC)c2)C(=O)N2C[C@H](OCC)C[C@H]2C(=O)NC2(CC(C)(C)C2)C(=O)N(C)[C@@H](CC(C)(C)C)C(=O)N(C)[C@H](C(=O)N(C)C)CC(=O)N1C [PP2712]			A (a compound having 10 or more and less than 20 is denoted as A)	B (a compound having 3 or more and less than 10 is denoted as B)	
CC[C@H](C)[C@@H]1NC(=O)[C@H](CC)N(C)C(=O)C[C@@H](C(=O)N(C)C)N(C)C(=O)[C@H](C2CCCC2)N(C)C(=O)C2(CCC2)NC(=O)[C@@H]2COCCN2C(=O)[C@H](CCc2cc(F)c(C(F)(F)F)c(F)c2)NC(=O)CN(C)C(=O)[C@H](Cc2ccc(C(F)(F)F)cc2)N2CC/C=C\C[C@@H](C2=O)N(C)C(=O)CN(C)C1=O [PP1138]	A (a compound having 10 or more and less than 20 is denoted as A)	A (a compound having 10 or more and less than 20 is denoted as A)			
CCC(CC)[C@H]1C(=O)N(C)[C@H](C(=O)N(C)C)CC(=O)N(C)[C@@H](COC)C(=O)N[C@@H]([C@@H](C)CC)C(=O)N(C)CC(=O)N(C)[C@H]2C/C=C\CCN(C2=O)[C@@H](Cc2ccc(C)cc2)C(=O)N(C)CC(=O)N[C@@H](CCc2ccc(Cl)c(Cl)c2)C(=O)N2CC3(CC3)C[C@H]2C(=O)N(C)C2(CC(C)(C)C2)C(=O)N1C [PP2820]			AA (a compound having 20 or more is denoted as AA)	A (a compound having 10 or more and less than 20 is denoted as A)	
CCCN1C(=O)[C@@H]2CCN2C(=O)CN(C)C(=O)[C@H]([C@@H](C)CC)NC(=O)[C@H](CC(C)C)N(C)C(=O)C[C@@H](C(=O)N(C)C)N(C)C(=O)[C@H](C2CCCC2)N(C)C(=O)C2(CCC2)NC(=O)[C@@H]2CC(F)(F)CN2C(=O)[C@H](CCc2ccc(C(F)(F)F)c(Cl)c2)NC(=O)CN(C)C(=O)[C@@H]1Cc1ccc(C(F)(F)F)cc1 [PP0443] ([NMeL]I[Sar][Aze][NPrPhe(4-CF3)][Sar][hPhe(3-Cl-4-CF3)][Pro(4,4-F2)][Ac4c][NMeGly(cPent)][NMeD]-NMe2; lactam N-11)					NRAS/KRAS (ratio of KD value with respect to GDP-bound NRAS wild-type protein to KD value with respect to KRAS) ([1]; SPR): C (A compound having a KD ratio of 0.1 or more and less than 3 is denoted as C); HRAS/KRAS (ratio of KD value with respect to GDP-bound HRAS wild-type protein to KD value with respect to KRAS) ([2]; SPR): C (A compound having a KD ratio of 0.1 or more and less than 3 is denoted as C)
CCCN(C)C(=O)[C@@H]1CC(=O)N(C)[C@@H](CC(F)F)C(=O)N[C@@H]([C@@H](C)CC)C(=O)N(C)CC(=O)N(C)[C@H]2C/C=C\CCN(C2=O)[C@@H](Cc2ccc(C(F)(F)F)cc2)C(=O)N(C)CC(=O)N[C@@H](CCc2cc(F)c(C(F)(F)F)c(F)c2)C(=O)N2C[C@H](F)C[C@H]2C(=O)NC2(CC(C)(C)C2)C(=O)N(C)[C@@H](C2CCCC2)C(=O)N1C [PP1687]					NRAS/KRAS (ratio of KD value for NRAS to KD value for KRAS) [1, 3]: A (a compound having 10 or more and less than 20 is denoted as A); HRAS/KRAS (ratio of KD value for HRAS to KD value for KRAS) [2, 4]: A (a compound having 10 or more and less than 20 is denoted as A)

Source: US20250230193A1, “CYCLIC COMPOUND HAVING SELECTIVE KRAS INHIBITORY EFFECT ON HRAS AND NRAS” (CHUGAI SEIYAKU KABUSHIKI KAISHA, priority 2022, published 2025)
